Data from PMC8306933 (Molecules, 2021).
Read-outs that look alike come from different tables or passages of the source.

What was measured:
[1] = biological target: T1, Acetylcholinesterase from electric eel (Electrophorus electricus, UniProt O42275); test: biochemical; type: biochemical
T1 construct: purchased Sigma-Aldrich (St. Louis, MO, USA) type VI-s; host or cells: electric eel
Text: (§1) Trizma hydrochloride (Tris-HCl) and bovine serum albumin (BSA) were obtained from Sigma–Aldrich (Steinheim, Germany). Deionized water was produced using a Milli-Q water purification system (Millipore, Bedford, MA, USA). Dulbecco’s Modified Eagle Medium (DMEM) was collected from Gibco (Japan), and fetal bovine serum (FBS) was also collected from Gibco (Waltham, MA, USA). Insulin and penicillin G/streptomycin were collected from Wako (Fujifilm Wako Pure Chemical Corporation, Osaka, Japan), the MTS kit was collected from Promega (Madison, WI, USA), and poly-2-hydroxyethyl methacrylate was collected from Sigma-Aldrich (Taufkirchen, Germany).
(§2) The cholinesterase inhibitory (AChE/BChE) properties were ascertained based on Ellman’s method, as previously described. […] In the AChE inhibitory assay, 25 µL of sample solution (0–1 mM) along with 50 µL of buffer B (50 mM Tris-HCl, pH 8 containing 0.1% BSA), 125 µL of DTNB (3 mM), and 25 µL of 0.05 U/mL AChE were incubated at 37 °C for 10 min. After incubation, 25 µL of acetylthiocholine iodide (5 mM) as AChE substrate was incorporated to the solution. The BChE activity was determined following the same protocol using 25 µL of 5 mM S-butyrylthiocholine chloride as BChE substrate and 0.05 U/mL BChE as enzyme. […] The percentage of inhibition was calculated and the results were expressed as IC50 (µM).

[2] = biological target: T2, α-amylase from porcine pancreas (Sus scrofa, UniProt P00690); test: biochemical; type: biochemical
T2 construct: purchased Sigma-Aldrich (St. Louis, MO, USA); host or cells: porcine pancreas
T2 sequence (P00690 16-511): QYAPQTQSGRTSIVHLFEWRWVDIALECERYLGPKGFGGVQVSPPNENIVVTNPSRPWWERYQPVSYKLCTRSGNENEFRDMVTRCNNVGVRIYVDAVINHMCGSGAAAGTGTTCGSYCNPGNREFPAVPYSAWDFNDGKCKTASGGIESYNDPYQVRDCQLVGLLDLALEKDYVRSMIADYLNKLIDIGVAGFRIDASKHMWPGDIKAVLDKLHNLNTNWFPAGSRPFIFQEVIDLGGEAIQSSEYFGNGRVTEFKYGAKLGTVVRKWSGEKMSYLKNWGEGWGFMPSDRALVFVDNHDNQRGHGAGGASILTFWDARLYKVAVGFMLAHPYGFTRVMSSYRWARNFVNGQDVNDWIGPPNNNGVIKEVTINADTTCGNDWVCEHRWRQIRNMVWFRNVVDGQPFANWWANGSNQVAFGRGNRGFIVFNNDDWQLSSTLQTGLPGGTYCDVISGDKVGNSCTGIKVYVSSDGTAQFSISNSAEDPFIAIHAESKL
Text: as §1
α-Amylase inhibitory activity was determined following the starch-iodine method with some modifications. A 1% starch solution was prepared by 1 g of starch in 10 mL of distilled water following gentle boiling and cooling into 100 mL. A reaction mixture, 25 μL sample (0–1 mM) and 50 μL α-amylase (5 U/mL) in phosphate buffer, was incubated at 37 °C for 10 min. Afterwards, the starch (100 μL, 1% w/v) solution was added to the mixture and incubated again at 37 °C for 10 min. […] After adding the iodine/iodide solution, based on the colour change, the absorbance was monitored at 630 nm for 10 min. […] The percentage of inhibition was calculated and results were expressed as IC50 (µM).

MDA-MB-231 cells [3] = test: Cytotoxicity / cell viability (MTS assay), MDA-MB-231; type: cell-based; details: for IC50: Homo sapiens, TNBC cell line MDA-MB-231, read-out: IC50 cytotoxic activity MDA-MB-231; for reduction of the number of TNBC cells MDA-MB-231: after three days of treatment at IC50
Experimental: (§3) The human TNBC cell lines Hs578T and MDA-MB-231 were obtained from the American Type Culture Collection and cultured in Dulbecco’s Modified Eagle Medium (DMEM) supplemented with fetal bovine serum (FBS) (10% v/v), insulin (Hs578T cell only), and penicillin G/streptomycin 1% (v/v) at 37 °C under 5% CO2. The absence of culture contamination by Mycoplasma species was confirmed before the experiments.
(§4) The activity of the selected compounds on breast cancer cell viability were determined employing the MTS assay. Briefly, 5 × 10^3 cells were seeded in each well of a 96-well plate for 24 h, and growth medium containing different compounds was added and incubated in different periods. A total of 20 µL of the MTS kit was added to each well, and the cells were incubated for 2 h. After incubation, the absorbance was measured at 490 nm with an enzyme-linked immunosorbent assay microplate reader (BioTek Instruments, USA). The absorbance value is directly proportional to the number of living cells.

[4] = biological target: T3, butyrylcholinesterase from equine serum (Equus caballus, UniProt P81908); test: BChE inhibition (Ellman's method); type: biochemical
T3 construct: purchased Sigma-Aldrich (St. Louis, MO, USA); host or cells: equine serum
T3 sequence (P81908 whole entry): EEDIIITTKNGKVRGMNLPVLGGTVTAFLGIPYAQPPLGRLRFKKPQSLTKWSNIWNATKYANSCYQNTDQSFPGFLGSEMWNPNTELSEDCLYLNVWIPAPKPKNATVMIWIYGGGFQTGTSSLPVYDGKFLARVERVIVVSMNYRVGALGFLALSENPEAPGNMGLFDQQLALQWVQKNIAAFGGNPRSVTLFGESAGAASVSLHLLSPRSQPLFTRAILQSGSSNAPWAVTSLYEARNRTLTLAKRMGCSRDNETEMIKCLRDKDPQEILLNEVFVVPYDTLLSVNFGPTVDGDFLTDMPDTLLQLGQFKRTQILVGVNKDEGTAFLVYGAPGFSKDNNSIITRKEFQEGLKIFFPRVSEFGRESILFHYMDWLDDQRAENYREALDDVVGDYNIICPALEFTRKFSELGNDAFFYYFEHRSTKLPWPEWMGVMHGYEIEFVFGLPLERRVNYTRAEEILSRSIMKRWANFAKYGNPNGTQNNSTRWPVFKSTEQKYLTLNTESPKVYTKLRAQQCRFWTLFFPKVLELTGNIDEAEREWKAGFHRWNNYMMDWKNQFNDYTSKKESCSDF
Text: as §1, §2

Hs578T cells [5] = test: Cytotoxicity / cell viability (MTS assay), Hs578T; type: cell-based; details: for IC50: Homo sapiens, Hs-578T, TNBC cell line Hs578T, read-out: IC50 cytotoxic activity Hs578T; for reduction of the number of TNBC cells Hs578T: after three days of treatment at IC50
Experimental: as §3, §4

MDA-MB-231 cells [6] = test: Transwell cell migration assay, MDA-MB-231; type: cell-based, human; details: at IC50; vs DMSO control
Experimental: as §3
(§5) The effects of the selected compounds on breast cancer cell migration were evaluated in transwell chambers according to a published protocol. Briefly, the Hs578T and MDA-MB-231 cells were treated with the tested compounds for 24 h, trypsinized, and washed twice with serum-free medium. Approximately 3 × 10^4 pretreated cells, suspended in 100 μL of the serum-free medium, were seeded to the upper chamber. The lower chambers were filled with approximately 500 μL of DMEM medium with 10% FBS and incubated for 12 h. After incubation, the cells from the upper surface were wiped off with cotton swabs, while the migrated cells on the opposite side of the transwell were washed twice with PBS, fixed with 4% paraformaldehyde, and finally stained with crystal violet solution. After 2 washes with water (Milli Q), several microscopic fields were taken randomly, and the migrated cells were counted using ImageJ software.

Hs578T cells [7] = test: Transwell cell migration assay, Hs578T; type: cell-based, human; details: at IC50; vs DMSO control
Experimental: as §3, §5

Hs578T cells [8] = test: Tumor-sphere formation assay, Hs578T; type: cell-based, human; details: in vitro tumor-sphere formation
Experimental: as §3
(§6) Three-dimensional or tumor-sphere culture is a recently introduced in vitro technique which maintains a physiological environment which closely resembles that of in vivo conditions. This technique has now been widely used for the screening of anticancer moieties. In vitro tumor-sphere formation assay was performed following a reported protocol. Briefly, approximately 3 × 10^3 cells were resuspended in a poly-2-hydroxyethyl methacrylate coated 6-well plate containing a sphere-forming medium with or without tested compounds and incubated for one week. The number of tumor spheres were counted, and the diameter of each tumor sphere was measured.

MDA-MB-231 cells [9] = test: Tumor-sphere formation assay, MDA-MB-231; type: cell-based, human; details: in vitro tumor-sphere formation
Experimental: as §3, §6

[10] = mean ± SD (n = 3), tested 0–1 mM
[11] = mean ± SD (n = 3), tested 0–1 mM, read-out: IC50 AChE
[12] = mean ± SD (n = 3), mammalian α-amylase
[13] = mean ± SD (n = 3), mammalian α-amylase, read-out: IC50 α-Amylase
[14] = mean ± SD (n = 3), tested 0–1 mM, read-out: IC50 BChE

T1 sequence (O42275 24-633): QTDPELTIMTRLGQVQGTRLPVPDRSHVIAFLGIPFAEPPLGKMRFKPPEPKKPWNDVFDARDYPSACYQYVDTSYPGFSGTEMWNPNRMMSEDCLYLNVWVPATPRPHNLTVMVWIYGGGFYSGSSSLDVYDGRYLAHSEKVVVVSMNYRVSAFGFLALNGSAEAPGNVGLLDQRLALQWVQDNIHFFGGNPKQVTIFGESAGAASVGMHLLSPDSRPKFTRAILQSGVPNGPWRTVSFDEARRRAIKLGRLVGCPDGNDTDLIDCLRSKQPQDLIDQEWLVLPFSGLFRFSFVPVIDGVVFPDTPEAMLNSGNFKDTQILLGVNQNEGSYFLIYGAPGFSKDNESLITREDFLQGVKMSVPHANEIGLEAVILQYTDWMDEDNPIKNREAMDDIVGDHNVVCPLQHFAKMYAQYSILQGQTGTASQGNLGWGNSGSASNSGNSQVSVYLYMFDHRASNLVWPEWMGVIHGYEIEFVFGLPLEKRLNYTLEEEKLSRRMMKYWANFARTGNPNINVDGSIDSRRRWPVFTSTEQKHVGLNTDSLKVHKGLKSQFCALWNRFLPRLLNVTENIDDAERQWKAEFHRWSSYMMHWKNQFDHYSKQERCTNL

SMILES	IC50 [1] [µM]	IC50 [2] [µM]	IC50 (MDA-MB-231 cells [3]) [µM]	IC50 [4] [µM]	IC50 (Hs578T cells [5]) [µM]	IC50 AChE [1, 10]	IC50 [1, 11] [µM]	IC50 α-Amylase [2, 12]	IC50 [2, 13] [µM]	inhibition of migration of MDA-MB-231 (MDA-MB-231 cells [6]) [%]	reduction of the number of TNBC cells MDA-MB-231 (MDA-MB-231 cells [3]) [%]	inhibition of migration of Hs578T cell (Hs578T cells [7]) [%]	IC50 [4, 14] [µM]	reduction of the number of TNBC cells Hs578T (Hs578T cells [5]) [%]	tumor-sphere size and number, Hs578T (Hs578T cells [8])	tumor-sphere size and number, MDA-MB-231 (MDA-MB-231 cells [9])
CC1=C(CO)[C@@H]2CC(=O)c3cc(C[C@@H](C)O)c(O[C@@H]4O[C@@H](CO)C(O)[C@H](O)[C@@H]4O[C@@H]4O[C@H](CO)[C@@H](O)[C@H](O)[C@@H]4O)c(O)c3[C@@]2(C)CC1 (stereo partly drawn) [Compound 1, (5R,10S,16R)-11,16,19-trihydroxy-12-O-β-D-glucopyranosyl-(1→2)-β-D-glucopyranosyl-17(15→16),18(4→3)-diabeo-3,8,11,13-abietatetraene-7-one]	191 ± 10.2	18.5 ± 0.6	122 ± 1.2	> 1000	128 ± 2.2											
CC1=C(C(=O)O)C2CC(=O)c3cc(CC(C)O)c(OC4OC(CO)C(O)C(O)C4OC4OC(CO)C(O)C(O)C4O)c(O)c3C2(C)CC1 [Compound 2, (5R,10S,16R)-11,16-dihydroxy-12-O-β-D-glucopyranosyl-(1→2)-β-D-glucopyranosyl-17(15→16),18(4→3)-diabeo-4-carboxy-3,8,11,13-abietatetraene-7-one]	139 ± 7.2	64.6 ± 7.1		> 1000												
CC1=CC(=O)CC(C)(C)[C@H]1CC[C@@H](C)O[C@@H]1O[C@H](CO)[C@@H](O)[C@H](O)[C@H]1O [Compound 3, byzantionoside B]			118 ± 3.3		94.7 ± 1.3	no inhibitory activity	> 1000	almost inactive	284 ± 13.2	40	48	50	> 1000	44		
O=C(O)C[C@H]1CCC(=O)[C@@H]1C/C=C\CCO[C@@H]1O[C@H](COC(=O)/C=C/c2ccc(O)c(O)c2)[C@@H](O)[C@H](O)[C@H]1O [Compound 4, 6′-O-caffeoyl-12-glucopyranosyloxyjasmonic acid]			199 ± 3.1		210 ± 5.1	no inhibitory activity	> 1000		13 ± 1.3				> 1000			
CC1OC(OC2C(O)C(OCCc3ccccc3)OC(CO)C2OC(=O)C=Cc2ccc(O)c(O)c2)C(O)C(O)C1O (stereo not drawn) [Compound 5, jionoside C]			96.5 ± 1.5		85.3 ± 2.4		160 ± 12.2		24.9 ± 0.4	37	43	43	> 1000	42	reduced the cell size (Figure 5A,C) and the cell number significantly	reduced the cell size (Figure 5A,C) and the cell number significantly
COc1ccc(CCO[C@@H]2O[C@H](CO)[C@@H](OC(=O)/C=C/c3ccc(O)c(O)c3)[C@H](O[C@@H]3O[C@@H](C)[C@H](O)[C@@H](O)[C@H]3O)[C@H]2O)cc1O [Compound 6, jionoside D]						no inhibitory activity	> 1000		3.4 ± 0.2				> 1000			
COc1ccc(CCO[C@@H]2O[C@H](CO)[C@@H](OC(=O)/C=C/c3ccc(O)c(O)c3)[C@H](O[C@@H]3O[C@@H](C)[C@H](O)[C@@H](O)[C@H]3O)[C@H]2O)cc1OC [Compound 7, brachynoside]						no inhibitory activity	> 1000	almost inactive	221 ± 24.5				> 1000			
COc1cc(/C=C/C(=O)O[C@H]2[C@H](O[C@@H]3O[C@@H](C)[C@H](O)[C@@H](O)[C@H]3O[C@@H]3O[C@H](CO)[C@@H](O)[C@H](O)[C@H]3O)[C@@H](O)[C@H](OCCc3ccc(O)c(O)c3)O[C@@H]2CO)ccc1O [Compound 8, incanoside C]							178 ± 11.3		19.8 ± 0.5				> 1000			
